Where two headings read alike, the source gives them in different places.
Tested on: human ovarian carcinoma 2008 cells
Test: Cytotoxicity (colony formation assay) on human ovarian carcinoma 2008 cells
Assay type: cell-based
Description: Cells were exposed to various concentrations of 10 for 1 hour and survival was determined after a further […] period of growth in drug-free medium.
Human ovarian carcinoma 2008 cells were plated in 6-well plates at a density of 200 cells in 3 mL of media (RPMI-1640+10% Fetal Bovine Serum) per well and incubated overnight to allow the cells to adhere to the bottom of the wells. After overnight incubation the media was removed from each well and fresh growth media containing different concentrations of 10 was added to the wells. The cells were incubated for 1 hour in the presence of 10. Following the removal of the solutions containing 10, the cells were incubated with fresh media for […] to allow surviving cells to form colonies. […] Clusters containing >50 cells were scored as colonies using an AlphaInontech Imager. The colony formation assay was performed in triplicate on 3 independent occasions.
Chem. Int. Ed. 2004, 43, 739-742. Norrisolide Core (5, 11 μmol) was dissolved in 0.5 mL of dichloromethane (DCM). 4-carboxybenzaldehye (19 μmol), N,N′-dicyclohexylcarbodiimide (DCC, 19 μmol) and Dimethylaminopyridine (DMAP, 1 crystal) was added and stirred overnight at 23° C.

[1] = Table 3, human ovarian carcinoma 2008 cells, read-out: IC50
[2] = human ovarian carcinoma 2008 cells, relative to compound 10

| Compound | IC50 [1] | other results |
| --- | --- | --- |
| CCOC(c1ccccc1Br)n1ccnc1 (stereo not drawn) [Compound 5] | 52 µM |  |
| CCOC(c1ccccc1OC)n1ccnc1 (stereo not drawn) [Compound 6] | 55 µM |  |
| COc1cccc2c1C(=O)c1c(O)c3c(c(O)c1C2=O)C[C@@](O)(C(=O)CO)C[C@@H]3O[C@H]1C[C@H](NC(=O)c2ccc(C=O)cc2)[C@H](O)[C@H](C)O1 [Compound 10, N-(4-formylbenzoyl)doxorubicin] |  | IC50 (1 hour exposure, colony formation, read-out: IC50 against human ovarian carcinoma 2008 cells): ~12 µM |
| CCOC(c1ccc(Br)cc1)n1ccnc1 (stereo not drawn) [Compound 2] | 9 µM |  |
| COc1cccc2c1C(=O)c1c(O)c3c(c(O)c1C2=O)C[C@@](O)(C(=O)CO)C[C@@H]3O[C@H]1C[C@H](N)[C@H](O)[C@H](C)O1 [doxorubicin, Doxorubicin, reference compound] |  | IC50 fold lower than that of 10 [2]: > 10 fold |
| CCOC(c1ccccc1)n1ccnc1 (stereo not drawn) [Compound 1, N-ethoxybenzylimidazole] | 0.01 µM |  |
| N-ethoxybenzylimidazole-doxorubicin Conjugate [Compound 9] |  | IC50 fold higher than that of 10 [2]: 2 fold |
| CCCCc1ccc(C(OCC)n2ccnc2)cc1 (stereo not drawn) [Compound 4] | 0.25 µM |  |
| CCOC(c1ccc([N+](=O)[O-])cc1)n1ccnc1 (stereo not drawn) [Compound 3] | 0.1 µM |  |
